From US8257714B2, “Compositions and methods for immunotherapy of cancer and infectious diseases” (priority 2003, dated 2012)
Ends that are not written are not given here.

B1: IFNγ: Interferon-gamma (protein, UniProt P01580 23-155, looked up)
Interferon gamma: HGTVIESLESLNNYFNSSGIDVEEKSLFLDIWRNWQKDGDMKILQSQIISFYLRLFEVLKDNQAISNNISVIESHLITTFFSNSKAKKDAFMSIAKFEVNNPQVQRQAFNELIRVVHQLLPESSLRKRKRSRC
B2: IL-11: interleukin (protein, UniProt P20809 22-199, looked up)
Interleukin-11: PGPPPGPPRVSPDPRAELDSTVLLTRSLLADTRQLAAQLRDKFPADGDHNLDSLPTLAMSAGALGALQLPGVLTRLRADLLSYLRHVQWLRRAGGSSLKTLEPELGTLQARLDRLLRRLQLLMSRLALPQPPPDPPAPPLAPPSSAWGGIRAAHAILGGLHLTLDWAVRGLLLLKTRL
B3: IL-7: interleukin (protein, UniProt P10168 26-154, looked up)
Interleukin-7: ECHIKDKEGKAYESVLMISIDELDKMTGTDSNCPNNEPNFFRKHVCDDTKEAAFLNRAARKLKQFLKMNISEEFNVHLLTVSQGTQTLVNCTSKEEKNVKEQKKNDACFLKRLLREIKTCWNKILKGSI
B4: MIP-1 α: chemokine (protein, UniProt P10147 24-92, looked up)
C-C motif chemokine 3: SLAADTPTACCFSYTSRQIPQNFIADYFETSSQCSKPGVIFLTKRSRQVCADPSEEWVQKYVSDLELSA
B5: IL-18: interleukin (protein, UniProt P70380 36-192, looked up)
Interleukin-18: NFGRLHCTTAVIRNINDQVLFVDKRQPVFEDMTDIDQSASEPQTRLIIYMYKDSEVRGLAVTLSVKDSKMSTLSCKNKIISFEEMDPPENIDDIQSDLIFFQKRVPGHNKMEFESSLYEGHFLACQKEDDAFKLILKKKDENGDKSVMFTLTNLHQS
B6: KC: chemokine (protein, UniProt P12850 25-96, looked up)
Growth-regulated alpha protein: APIANELRCQCLQTMAGIHLKNIQSLKVLPSGPHCTQTEVIATLKNGREACLDPEAPLVQKIVQKMLKGVPK
B7: IL-2: Interleukin 2 (protein, UniProt P04351 21-169, looked up)
Interleukin-2: APTSSSTSSSTAEAQQQQQQQQQQQQHLEQLLMDLQELLSRMENYRNLKLPRMLTFKFYLPKQATELKDLQCLEDELGPLRHVLDLTQSKSFQLEDAENFISNIRVTVVKLKGSDNTFECQFDDESATVVDFLRRWIAFCQSIISTSPQ
B8: IL-4: interleukin (protein, UniProt P07750 21-140, looked up)
Interleukin-4: HIHGCDKNHLREIIGILNEVTGEGTPCTEMDVPNVLTATKNTTESELVCRASKVLRIFYLKHGKTPCLKKNSSVLMELQRLFRAFRCLDSSISCTMNESKSTSLKDFLESLKSIMQMDYS

Legend:
[1] = tested on: freshly isolated dendritic cells (CD11c+ splenocytes); test: Dendritic cell (DC) assay: IL12 release from freshly isolated dendritic cells; assay type: cell-based, BALB/c mice; conditions: for DC mIL12 Release: tested for synergism and inhibition
Text: In a preferred embodiment, dendritic cell (DC) assay is used to follow interleukin-12 (IL-12) release from freshly isolated dendritic cells as an index of DC activation (see section 12.3). […] Briefly, by way of example but not limitation, a DC assay can be carried out as follows: freshly isolated dendritic cells (CD11c^+ splenocytes, e.g., isolated from the spleens of BALB/c mice within ten hours of assaying the activity) are suspended at a density of 0.5×10^6 cells per mL in cytokine supplemented culture media (GM-CSF, 1.0 ng/ml; IL-4, 1.0 ng/ml; IFNg, 3.0 ng/ml; anti mouse CD40, 0.5 mg/ml). […] Mouse IL-12 release from the dendritic cells (CD11c^+ splenocytes) is then measured using ELISA.
To follow the activity in semi-purified preparations of BEX, an assay which follows IL12 release from freshly isolated dendritic cells (DCs) as an index of DC activation was developed. This activity is highly correlated with both NK-CMC in vitro and anti-tumor activity in vivo.
DCs were isolated from the spleens of male BALB/c mice 8-12 weeks of age (Harlan Bioproducts for Science, Indianapolis, Ind.), using the magnetic assisted cell separation (MACS) system purchased from Miltenyi Biotech. In summary: Spleens were aseptically removed from mice and placed into a petri dish containing 5 mL holding media (DMEM/F12 supplemented with 10% FCS and antibiotics). Each spleen was then injected with ˜0.5 mls collagenase D solution (1 mg/mL in 10 mM Hepes-NaOH, pH 7.4, 150 mM NaCl, 5 mM MgCl2, 1.8 mM CaCl2), placed into 5-10 mL collagenase D, cut into 5-6 pieces and incubated at 37° C. for 45-60 min. Collagenase-digested spleens were then processed with glass slides and passed through a 70 μm nylon mesh cell strainer. After the strainer was flushed with 40 mL culture media, cells were centrifuged (8 min @ 200×G), suspended in 1 mL PBS and subjected to red blood cell lysis by incubating the cell suspension for 5 min at room temperature in 10 mL lysis buffer (155 mM NH4Cl, 10 mM KHCO3, 0.1 mM EDTA), followed by dilution in PBS to 50 mL and centrifugation (8 min @ 200×g). The splenocytes were then suspended in 10 mL MACS buffer (PBS pH 7.2, supplemented with 2 mM EDTA and 0.5% BSA), passed through a 40 μm nylon mesh cell strainer which was flushed with 40 mL MACS buffer. A preliminary cell count was taken at this time, prior to centrifugation (8 min @ 200×G). The splenocytes were suspended at a density of 10^8 cells per 400 μL MACS buffer. Paramagnetic MicroBeads coated with anti-CD11c^+ antibody were mixed with the splenocyte suspension (100 μL per 10^8 cells), incubated at +4° C. for 15 min, washed, suspended in 1.0 mL MACS buffer and passed through a MS+ separation column placed within a strong magnetic field. CD11c^+ cells were retained in the column whereas CD11c^− cells were washed off the column as the flow-through cell fraction. CD11c^+ cells were then collected by removing the column out of the magnetic field and flushing the column twice with 1 mL of MACS buffer. CD11c^+ cells were washed once with culture media and suspended at a density of 0.5×10^6 cells per mL in cytokine supplemented culture media {DMEM/F12 supplemented with 10% FCS and gentamicin containing mouse GM-CSF (1 ng/mL), mouse IL-4 (1 ng/mL), mouse IFNγ (3 ng/mL) and anti mouse CD40 (0.5 mg/mL)}.
Mouse IL12 release from CD11c^+ splenocytes was measured using ELISA. Briefly, CD11c+ cell culture supernatants were sampled following an overnight incubation (usually 15-18 hrs). Media samples ([…]) were added to ELISA plates coated with anti mouse IL12 (p70) capture antibody (R&D #MAB419; 250 ng in 100 μL per well) and incubated either at 37° C. or room temperature for 2 hrs. The ELISA plates were washed extensively with wash buffer after which 100 μL per well of detection antibody/detection reagent (biotinylated anti-mouse IL12; R&D #BAF419 at 50 ng/mL and streptavidin-HRP) was added. […]

Mouse sarcoma 180 cells = test: NK cell-mediated cytotoxicity (NK-CMC) assay, LGL/S180 co-culture; assay type: cell-based; conditions: for NK-CMC Activity: wide range of concentrations, presence and absence of IL-2 (125 U/ml)
Protocol: In one embodiment, a NK cell assay is used to assess ARP-induced cytotoxic activity of NK-like cells (see section 12.2). Briefly, by way of example but not limitation, a NK cell assay can be carried out as follows: large granular lymphocytes (LGLs) are co-cultured with tumor cells at various ratios (effector to target ratio) for four days at 37° C., 5% CO2. […] The culture is terminated at the end of day 4 and vitally stained using a MTT cell viability quantification assay (see Mossman, T. J. Immunol. Methods 65: 55 (1983); and Sigma Chemical MTT (M5655) product application note). Culture media is aspirated and the remaining cells are washed and replaced with DMEM/F12 plus FCS, containing MTT. The cells are further incubated for 4-5 hours at 37° C. Absorbance is measured with the aid of a plate reader. Decreased absorbance indicated a decrease in the number of viable cells per well (i.e., cytotoxicity). Absorbance is measured again after the MTT is solubilized by replacement of the medium with 2-propanol containing HCl, which gives a uniform color throughout the well. NK-inducing activity is calculated relative to negative (PBS/BSA) and positive (internal standard) controls.
Spleens (10-15 per experiment) were aseptically removed from male Balb/C mice 6-10 weeks of age. Splenocytes were “squeezed” out of spleens using 2 sterile glass microscope slides. Cells were collected in approximately 10 ml of DMEM/F 12 containing 10% fetal calf serum (FCS) and gentamicin (50 μg/ml). Single cell suspensions were generated by passing collected cells through a 70 μm nylon mesh screen. After washing the cell pellet once with PBS (centrifuged at 675×g for 5 min), red blood cells were lysed by brief hypotonic shock (i.e. exposure to sterile distilled, deionized water, followed immediately with appropriate volumes of 10×PBS to return to isotonicity). Remaining cells were centrifuged and resuspended in DMEM/F12+10% FCS and transferred to 75 cm^2 flasks each containing 25 mls DMEM/F12+10% FCS (cells from 5 spleens per flask). The cells were incubated for 60 min. at 37° C. to selectively remove readily adherent cells (mainly fibroblasts and macrophages). After the incubation, the flasks were gently shaken and the non-adherent cells were removed, pelleted by centrifugation, and resuspended in DMEM/F12 (no supplements) (1.0 mL/10^8 cells). A 1.0 mL volume of these cell suspensions were carefully layered onto a 70%/60%/40% (2 mL/4 mL/4 mL) Percoll™ gradients in 15 ml centrifuge tubes and centrifuged for 30 min at 675×G. The cells which sediment at the 40/60 interface represent primarily large granular lymphocytes (LGLs), enriched with NK cells. These cells were carefully removed with a pasteur pipet, centrifuged, washed once with PBS and resuspended in approximately 5 mL DMEM/F12 supplemented with gentamicin (50 μg/mL) and 10% fetal calf serum. Cell counts and appropriate dilutions of LGL cells were made with these cells, as described below. For convenience this LGL cell preparation is interchangeably referred to as NK cells.
Mouse sarcoma 180 cells were seeded into 96 well plates at a density of 5×10^3 cells per well in 100 μl DMEM/F12, supplemented with 10% FCS and gentamicin (50 μg/mL). […] NK cells were added in 100 μL of supplemented DMEM/F12 at designated densities: 0 NK cells/well; 5×10^4 NK cells/well (1:10 target/effector ratio); 1.25×10^5 NK cells/well (1:25 target/effector ratio); 2.5×10^5 NK cells/well (1:50 target/effector ratio); and, 5×10^5 NK cells/well (1:100 target/effector ratio). (Note: routinely, only the 1:50 and 1:100 ratios were used for screening purposes. IL2 was added as a media supplement with final concentration of 125 U/mL.). Co-cultures were incubated for 4 days at 37° C., 5% CO2, and terminated and vitally stained using a MTT cell viability quantification assay (see Mossman, T. J. Immunol. Methods 65:55 (1983); and Sigma Chemical MTT (M5655) product application note). […]

Molecule	NK-CMC Activity (Mouse sarcoma 180 cells)	DC mIL12 Release [1]	further results
N[C@@H](CCC(=O)N[C@@H](CS)C(=O)NCC(=O)O)C(=O)O [reduced glutathione]			effect on responses in the DC assay ([1]; excess added to the assay system): lowered the responses
Cecropin A: defensin / anti-microbial peptide (KWKLFKKIEKVGQNIRDGIIKAGPAVAVVGQATQIAK; UniProt P01507 27-63, looked up)	−		
Cecropin B: defensin / anti-microbial peptide (KWKVFKKIEKMGRNIRNGIVKAGPAIAVLGEAKAL; ends and bridges not checked; UniProt P01508 27-61, looked up)	−		
Cecropin P1	−		
FGFbasic: growth factor	−	−	
IFN α	−		
IL-1 β: interleukin	−^3	−	
IL-5: interleukin	−	−	
IL-6: interleukin	−	−	
IL-15: interleukin	−		
JE/MCP-1: chemokine	−		
Magainin I	−		
Magainin II	−		
TGF α: growth factor	−		
TGF β	−	−	
TNF α		−	
truncated molecule lacking GEADTQAWDTSVREWLVDT: E. tenella ARP with start codon moved to the 21th position (listed as Eimeria tenella)			DC-activity compared to full-length ARP ([1]; recombinant E. tenella ARP variants): activity was lost
B1		−	NK-CMC on direct addition (Mouse sarcoma 180 cells; added directly to NK/S180 co-cultures): slight increase; maximal response in the presence of IL-2 (Mouse sarcoma 180 cells; table footnote): ^6Weakly activates NK cells in the presence of IL-2 (maximal response <50% cytotoxicity).
B2	−		
B3	−		
B4	−		
B5		−	
B6	−		
B7		−	
B8	−		
